In one data set the target is T1, Monoglyceride lipase (Mus musculus, UniProt O35678).
T1 sequence (O35678 whole entry): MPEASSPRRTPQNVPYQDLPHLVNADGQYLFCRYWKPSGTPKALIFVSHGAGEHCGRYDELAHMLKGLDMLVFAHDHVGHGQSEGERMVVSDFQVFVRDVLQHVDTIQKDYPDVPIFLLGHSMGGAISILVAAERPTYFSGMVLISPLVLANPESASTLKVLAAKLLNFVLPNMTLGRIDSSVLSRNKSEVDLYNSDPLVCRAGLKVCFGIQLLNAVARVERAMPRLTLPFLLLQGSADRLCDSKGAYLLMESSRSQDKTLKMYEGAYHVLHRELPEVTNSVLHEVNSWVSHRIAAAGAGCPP
Kind of data set: Inhibition of mouse MAGL using 2-AG as substrate incubated for 30 mins.

A short description of data set [1]: Drug uptake in Wistar rat brain Thalamus at 5 nM incubated for 30 mins by autoradiography. Conditions: 0.5 h, 0.005 µM; call rule not given here. It is filed as ADME, tissue-based.
Data set [2] can be described thus: Drug uptake in Wistar rat brain Thalamus at 2 nM incubated for 30 mins by autoradiography. Format: ADME, tissue-based. The conditions noted are these: 0.5 h, 0.002 µM.
Data set [3] can be described thus: Drug uptake in wild type mouse brain at 0.74 at 4.94 nmol/kg, iv and measured after 1 min post infection by PET imaging anlaysis. It is filed as ADME, organism-based. The conditions noted are these: in vivo.
The nature of data set [4]: Drug uptake in Wistar rat brain striatum at 2 nM incubated for 30 mins by autoradiography. It is filed as ADME, tissue-based. Conditions: 0.5 h, 0.002 µM.
A short description of data set [5]: Drug uptake in Wistar rat brain striatum at 5 nM incubated for 30 mins by autoradiography. It is filed as ADME, tissue-based. Conditions: 0.5 h, 0.005 µM.
Data set [6] is described as follows: Drug uptake in Wistar rat brain Cerebellum at 2 nM incubated for 30 mins by autoradiography. Conditions: 0.5 h, 0.002 µM. Format: ADME, tissue-based.
Data set [7] in a line: Drug uptake in Wistar rat brain incubated for 30 mins in presence of PF-06809247 by autoradiography. Format: ADME, tissue-based. Conditions: 0.5 h.
A short description of data set [8]: Distribution coefficient between 1-octanol and phosphate buffer, logD of the compound after 15 mins by shake flask assay. The conditions noted are these: 1-octanol/phosphate buffer. It is filed as physicochemical.
Data set [9] can be described thus: Drug uptake in Wistar rat brain Cortex at 2 nM incubated for 30 mins by autoradiography. It is filed as ADME, tissue-based. The conditions noted are these: 0.5 h, 0.002 µM.
Data set [10] is described as follows: Drug uptake in Wistar rat brain Cortex at 5 nM incubated for 30 mins by autoradiography. Format: ADME, tissue-based. Conditions: 0.5 h, 0.005 µM.
A short description of data set [11]: Drug uptake in Wistar rat brain incubated for 30 mins in presence of SAR127303 by autoradiography. It is filed as ADME, tissue-based. Conditions: 0.5 h.
Data set [12] can be described thus: Drug uptake in […] mouse brain incubated for 30 mins by autoradiography. It is filed as ADME, tissue-based. Conditions: 0.5 h.
Data set [13] in a line: Drug uptake in Wistar rat brain Hippocampus at 2 nM incubated for 30 mins by autoradiography. Conditions: 0.5 h, 0.002 µM. It is filed as ADME, tissue-based.
A short description of data set [14]: Drug uptake in Wistar rat brain Cerebellum at 5 nM incubated for 30 mins by autoradiography. Format: ADME, tissue-based. The conditions noted are these: 0.5 h, 0.005 µM.
A short description of data set [15]: Drug uptake in Wistar rat brain Hippocampus at 5 nM incubated for 30 mins by autoradiography. Format: ADME, tissue-based. Conditions: 0.5 h, 0.005 µM.
Data set [16] in a line: Drug uptake in MAGL knockout mouse brain incubated for 30 mins by autoradiography relative to control. Format: ADME, tissue-based. The conditions noted are these: 0.5 h.
Data set [17] in a line: Drug uptake in C57BL/6 mouse brain at 4.41 to 6.8 nmol/kg, iv and measured after 1 min post infection by PET imaging anlaysis. Conditions: in vivo, dose 4.41-6.8 nmol/kg. Format: ADME, organism-based.
Data set [18] can be described thus: Drug metabolism in C57BL/6 mouse brain assessed as intact parent compound at 46.50 to 49.39 MBq, iv and measured after 40 mins post injection by radio-UPLC analysis. Format: ADME, organism-based. The conditions noted are these: dose 46.5-49.39 MBq, read-out: Stability.
Data set [19] can be described thus: Clearance in human liver microsomes by LC/MS analysis. It is filed as ADME, Microsome. Conditions: read-out: CLH.
Data set [20] can be described thus: Protein binding in human plasma assessed as free plasma concentration incubated for 10 mins by ultracentrifugation. It is filed as ADME, cell-free.
Data set [21] can be described thus: Inhibition of Cynomolgus monkey MAGL using 2-AG as substrate incubated for 30 mins. More on the design: species or system Macaca fascicularis.
The nature of data set [22]: Drug metabolism in C57BL/6 mouse brain assessed as intact parent compound at 46.50 to 49.39 MBq, iv and measured after 20 mins post injection by radio-UPLC analysis. The conditions noted are these: dose 46.5-49.39 MBq, read-out: Stability. Format: ADME, organism-based.
Data set [23] in a line: Stability in human serum at 37 degC for 2 hrs by UPLC analysis. Format: ADME, cell-free. Conditions: read-out: Stability.
Data set [24] can be described thus: Protein binding in mouse plasma assessed as free plasma concentration incubated for 10 mins by ultracentrifugation. It is filed as ADME, cell-free.
Data set [25] in a line: Drug metabolism in C57BL/6 mouse brain assessed as intact parent compound 46.50 to 49.39 MBq, iv and measured after 60 mins post injection by radio-UPLC analysis. It is filed as ADME, organism-based. The conditions noted are these: dose 46.5-49.39 MBq, read-out: Stability.
A short description of data set [26]: Stability in mouse serum at 37 degC for 2 hrs by UPLC analysis. It is filed as ADME, cell-free. Conditions: read-out: Stability.
A short description of data set [27]: Clearance in mouse liver microsomes by LC/MS analysis. Format: ADME, Microsome. The conditions noted are these: read-out: CLH. (In general: Liver microsomes are vesicles of endoplasmic reticulum, rich in cytochrome P450 enzymes.)
Data set [28] in a line: Metabolic stability in C57BL/6 mouse brain assessed as remaining parent compound 46.50 to 49.39 MBq, iv and measured after 90 mins post injection by radio-UPLC analysis. The conditions noted are these: dose 46.5-49.39 MBq, read-out: Stability. Format: ADME, organism-based.

One may read the IC50 as the concentration that gives 50% inhibition. As a reminder, the logD is the decadic logarithm of the distribution of all forms, ionised or not, between an organic phase and buffer at a given pH. The fraction unbound is the share of the substance not bound to proteins or other matrix.

Turning to `O=C1CC(N2CCN(c3ncccn3)CC2)CN1c1ccc(N2CC[C@H](F)C2)cc1` (stereo partly specified), the IC50 against Monoglyceride lipase turned out to be 80 nM.

With `O=C(c1ccco1)N1CCN(C2CC(=O)N(c3ccc(-c4ccccc4F)cc3)C2)CC1` (stereo unspecified), the IC50 on Monoglyceride lipase was 37 nM.

Compound `COc1ccccc1-c1ccc(N2CC(N3CCN(c4ncccn4)CC3)CC2=O)cc1` (stereo unspecified) registered an IC50 on Monoglyceride lipase of 72 nM.

For `O=C(c1ccco1)N1CCN(C2CC(=O)N(c3cccc(-c4cccc(F)c4)c3)C2)CC1` (stereo unspecified), half-maximal inhibition on Monoglyceride lipase (IC50) required 41 nM.

`O=C(c1ccco1)N1CCN([C@H]2CC(=O)N(c3ccc(-c4ccc(F)cc4)cc3)C2)CC1`: half-maximal inhibition against Monoglyceride lipase (IC50) was put at 138 nM.

`COc1ccccc1-c1ccc(N2CC(N3CCN(C(=O)c4ccco4)CC3)CC2=O)cc1` (stereo unspecified): it took 30 nM to reach half-maximal inhibition at Monoglyceride lipase (IC50).

At Monoglyceride lipase, `O=C1CC(N2CCN(c3ncccn3)CC2)CN1c1cccc(N2CC[C@@H](F)C2)c1` (stereo partly specified) returned an IC50 of 10700 nM.

Take `COc1cccc(-c2ccc(N3CC(N4CCN(C(=O)c5ccco5)CC4)CC3=O)cc2)c1` (stereo unspecified): the Drug uptake result in [1] is “Active”; in data set [2], “Active”; in data set [4] it was “Active”; in data set [5], “Active”; in data set [6], “Active”; in data set [7] it was 41%. In addition, the Drug uptake result is given as “Active” in data set [9]; “Active” in data set [10]; 41% in data set [11]; “Not Active” in data set [12]; “Active” in data set [13]; “Active” in data set [14]. Also, the Drug uptake result in data set [15] is listed as “Active”; in [16], 41%. The compound further gave an SUV in data set [3] of 1.2. This compound returned a logD at 0.25 h in data set [8] of 2.24. The same compound yielded an IC50 against Monoglyceride lipase of 9 nM.

`O=C(c1ccco1)N1CCN(C2CC(=O)N(c3ccc(-c4ccc(F)nc4)cc3)C2)CC1` (stereo unspecified) showed an IC50 against Monoglyceride lipase of 127 nM.

Compound `COc1ccccc1-c1cccc(N2CC(N3CCN(c4ncccn4)CC3)CC2=O)c1` (stereo unspecified) came in with an IC50 against Monoglyceride lipase of 85 nM.

With `O=C(c1ccco1)N1CCN(C2CC(=O)N(c3cccc(N4CC[C@@H](F)C4)c3)C2)CC1` (stereo partly specified), the IC50 at Monoglyceride lipase stood at 2920 nM.

As for `O=C1CC(N2CCN(c3ncccn3)CC2)CN1c1cccc(-c2ccc(F)nc2)c1` (stereo unspecified), inhibition against Monoglyceride lipase was half-maximal at 2100 nM (IC50).

Take `COc1cccc(-c2cccc(N3CC(N4CCN(C(=O)c5ccco5)CC4)CC3=O)c2)c1` (stereo unspecified): the Drug uptake result in [1] is “Active”; in data set [2], “Active”; in [4], “Active”; in data set [5], “Active”; in data set [6], “Active”; in [7], 41%. The Drug uptake entry is “Active” in [9]; “Active” in [10]; 41% in data set [11]; “Not Active” in data set [12]; “Active” in data set [13]; “Active” in [14]. The Drug uptake entry is given as “Active” in data set [15] and 54% in [16]. The compound also had a logD at 0.25 h in data set [8] of 2.31. The compound further returned an SUV in data set [17] of 0.6. This compound came in with an IC50 against Monoglyceride lipase of 15 nM.

At Monoglyceride lipase, `COc1cccc(-c2ccc(N3CC(N4CCN(c5ncccn5)CC4)CC3=O)cc2)c1` (stereo unspecified) showed an IC50 of 20 nM.

As to `O=C1CC(N2CCN(c3ncccn3)CC2)CN1c1cccc(N2CC[C@H](F)C2)c1` (stereo partly specified), the IC50 at Monoglyceride lipase is 9300 nM.

In the case of `COc1cccc(-c2cccc(N3CC(N4CCN(c5ncccn5)CC4)CC3=O)c2)c1` (stereo unspecified), the IC50 against Monoglyceride lipase is 39 nM.

Take `O=C1CC(N2CCN(c3ncccn3)CC2)CN1c1cccc(-c2cccnc2F)c1` (stereo unspecified): on Monoglyceride lipase, inhibition was half-maximal at 305 nM (IC50).

Take `O=C(c1ccco1)N1CCN([C@@H]2CC(=O)N(c3ccc(-c4ccc(F)cc4)cc3)C2)CC1`: the remaining at 40 min in [18] came out at 70%. Besides, the microsomal CLint in data set [19] worked out at 21 µL/min/mg; in data set [27], 124 µL/min/mg. Besides, the fraction unbound at 10 min in data set [20] was 0.12; in [24], 0.24. The results for the IC50 (in data set [21]; against Monoglyceride lipase) were 14 nM and 8 nM, respectively. Also, the remaining at 20 min in data set [22] was 95%. This compound also returned a logD at 0.25 h in [8] of 2.37. Further, the remaining at 2 h in [23] and in [26] was > 95% each time. Also, the SUV in data set [17] turned out to be 1.63. For the same compound, the remaining at 1 h in data set [25] is 68%.

For the compound `O=C(c1ccco1)N1CCN(C2CC(=O)N(c3ccc(N4CC[C@@H](F)C4)cc3)C2)CC1` (stereo partly specified), the IC50 against Monoglyceride lipase turned out to be 1080 nM.

As for `Cc1ccnc(F)c1-c1cccc(N2C[C@H](N3CCN(C(=O)c4nccs4)CC3)CC2=O)c1`, the remaining at 1.5 h in data set [28] came out at 73%. For the same compound, the IC50 on Monoglyceride lipase was found to be 13 nM.

For `O=C(c1ccco1)N1CCN(C2CC(=O)N(c3ccc(-c4ccc(F)cc4)cc3)C2)CC1` (stereo unspecified), inhibition against Monoglyceride lipase was half-maximal at 13 nM (IC50).

Source of the values: ChEMBL document CHEMBL5042536, “Development of High Brain-Penetrant and Reversible Monoacylglycerol Lipase PET Tracers for Neuroimaging” (J Med Chem, 2022).
